Key:
T47D = assay: Cytotoxicity assay (CCK-8), T47D; assay type: cell-based, human; conditions: T47D (estrogen receptor positive), 48 hours incubation
Text: (§1) Materials: DMEM (medium), RPMI (medium), L-glutamine, penicillin, streptomycin and FBS (fetal bovine serum) were obtained from Gibco (NY, USA). Culture plasticware was purchased from Coming (MA, USA). […] All other chemicals used were of reagent grade and were purchased from Sigma or E. Merck (Germany).
(§2) Cell lines and cell cultures: The human breast cancer cell lines T47D and MDA-MB231 were obtained from American Type Culture Collection (ATCC). Of both cancer cells, T47D is estrogen receptor positive, and MDA-MB231 is estrogen receptor negative. Cells were cultured at 37°C in RPMI medium containing 10% charcoal-dextran stripped fetal bovine serum for T47D cells and in DMEM medium containing 10% charcoal-dextran stripped fetal bovine serum for MDA-MB231 cells with 5% CO2. The cell proliferation was determined by counting the viable cells with trypan blue exclusion.
(§3) Cytotoxicity assay: Dispense 198 µl of cell suspension (20,000 cells for T47D per well and 10,000 cell for MDA-MB231 per well) in a 96-well plate and pre-incubate the plate for 24 hours in an incubator at 37°C with humidified 5% CO2. […] After plate was incubated for 48 hours in the incubator, media were aspirated of and new media (100 µl) were added and incubated for more 1 hour. […] Measure the absorbance at 450 nm using a ELISA reader. […]

MDA-MB231 = assay: Cytotoxicity assay (CCK-8), MDA-MB231; assay type: cell-based, human; conditions: MDA-MB231 (estrogen receptor negative), 48 hours incubation
Text: as §1, §2, §3

[1] = system: osteoporosis caused by estrogen deficiency; assay: Ovariectomized rat osteoporosis model: bone histomorphometry and apparent bone density; assay type: in vivo, female Wistar rats
Text: The purpose of this example is to show the potency of bakuchiol in treating osteoporosis, wherein ovary of a female rat is removed to stimulate osteoporosis caused by estrogen deficiency.
The female Wistar rats of 16 weeks old (unless specified in the other experiment description) were obtained from the stock reared by the Animal breeding center, National Scientific Council in Taipei. These rats were grouped by weights matched in order to distribute the physiological response variation from rats evenly into each group. These rats were grouping as follows: • Baseline group fed with no drug added food (n=8) • Sham operation group fed with no drug added food (Sham) (n=10) • Ovariectomy operation group fed with no drug added food (OVX) (n=8) • Ovariectomy operation group fed with Drug A (5 mg/kg) added food (OVX+A) (n=9) • Ovariectomy operation group fed with Drug B (15 mg/kg) added food (OVX+B) (n=9)
Ovariectomy (removal of ovaries) operation: Ovariectomy was induced using a protocol similar to that described by Wronski et al (Wronski et al, Endocrinology, 123 (2), 681-686 ([…]))
During the experiments, the rats were housed in hanging grid cages in groups of two at 21°C with a 12 hours dark cycle. Food (Rat-mouse diet III, adequate in 1 % of calcium content and 1.2 % of phosphate content, Purina, USA) was administered by paired feeding between the experimental and control groups. Pair-feeding was carried out by calculating the average amount of food intake in the Sham group. So give the same amount of food to the OVX , OVX+A (5 mg/kg), OVX+B (15 mg/kg) group animals the following day. These animals were fed with a period of two months except for the baseline group which were killed on the very day of doing ovariectomy or sham operation. Rats of OVX+A and OVX+B groups were fed with the usual food chuck but added certain amount of compound A and B in it respectively. Water was given ad libitum to all rats.
The test drug was weighted according to dose of 5 mg/kg and 15 mg/kg, and added into the ususal food chuck powder and mixed with 10% starch paste. After fully mixed, these chuck powder were made into mass manually and dried by air flow oven. The food with added drug to rats was performed by single blind method.
These labeling and bone histomorphometry assessment were done based on standard procedure in bone research (Lin et al, Calcif. Tissue Int., 67, 373-377 (2000)). […] Seven µm thick unstained sections were prepared for fluorescent microscopy and assessed with program Osteomeasure (3.0 version, Atlanta, USA). […]
The whole tibia and femur were stripped off attached muscles and ligaments after sacrifice. […] The weight of bone measured in the air was marked as W-air. […] The apparent bone density was calculated as [W-air/(W-air minus W-water)] […]

Question: Which “50% inhibition of cell growth concentrations of test compounds (IC50)” value (T47D) does the source give for `C=C[C@@](C)(/C=C/c1ccc(O)cc1)CCC=C(C)C` [Bakuchiol, bakuchiol] here?
Answer: 5.00 μg/cc

Question: What about the “50% inhibition of cell growth concentrations of test compounds (IC50)” value (MDA-MB231) of the same molecule?
Answer: 0.62 μg/cc

Question: And the “bone volume of proximal tibia” value ([1]; OVX+A (5 mg/kg) and OVX+B (15 mg/kg) in food, two months, vs OVX group, p < 0.001, Figure 1)?
Answer: increase

Question: And the “erosion surface (ES/BS,%) of proximal tibia” value ([1]; OVX+A (5 mg/kg) and OVX+B (15 mg/kg) in food, two months, vs OVX group, p < 0.001, Figure 3)?
Answer: inhibition of bone erosion

Question: What about the “bone apparent density of tibia” value ([1]; OVX+A (5 mg/kg) and OVX+B (15 mg/kg) in food, two months, vs OVX group, p < 0.05, Figure 2) of the same molecule?
Answer: increase

Question: What about the “therapeutic effect on osteoporosis” value ([1]; ovariectomized female rat, low dose (5 mg/kg)) of the same molecule?
Answer: possess a therapeutic effect on osteoporosis by inhibiting the bone resorption
